Patent US20060165656A1, “Medicinal preparation having chemotherapeutic encapsulated therein” (priority 2002, published 2006)
Where two headings read alike, the source gives them in different places.

How the values were obtained:
[1] = test system: Mouse colon cancer-derived CT-26 cells transplanted in BALB/cAnNCrj male mice; test: In vivo experiment (2): tumor volume and weight, HVJ-E/BLM into the tumor with or without intraperitoneal CDDP; settings: Day 21, physiological saline into the tumor
[2] = test system: mouse colon carcinoma cell CT26; settings: 30 minutes at 37° C., counted two days later, HCl
Method: A microtube containing the sample was centrifuged at 15,000 rpm for 15 minutes at 4° C. to give the HVJ-E vector as a precipitate, and the supernatant was removed. […] Further, 2 μl of 3% Triton-X100 was added thereto to prepare a sample containing Triton-X100 at a final concentration of 0.1%, which was then left on ice for 15 minutes. Thereafter, 500 μl PBS solution was added thereto. The microtube was centrifuged at 15,000 rpm for 15 minutes at 4° C., and the supernatant was removed without removing the precipitate, and 500 μl PBS solution was added again to the precipitate. The microtube was centrifuged again at 15,000 rpm for 15 minutes at 4° C., and the supernatant was removed without removing the precipitate.
The resulting precipitate was suspended in 180 μl PBS, and the resulting sample solution was pipetted in a volume of 30 μl/microtube into 6 microtubes. Five microlitters of protamine sulfate solution prepared at 5 mg/ml and 500 μl DMEM solution (Dulbecco's modified Eagle medium) were added to each tube.
The above sample solution was added to mouse colon carcinoma cell CT26 prepared on a 6-well plate. The plate was kept for 30 minutes in an incubator at 37° C., and then the medium was exchanged with 500 μl medium (DMEM containing 10% FCS). The cells were incubated for 2 days in a CO2 incubator at 37° C. Two days later, the number of viable cells was counted to evaluate the anticancer effect.

Row | Molecule | tumor weight ([1]; CDDP 0.2 mg/body i.p.) | average tumor volume ([1]; CDDP 0.2 mg/body once intraperitoneally, 10 mice) | tumor weight ([1]; CDDP 0.4 mg/body i.p.) | average tumor volume ([1]; CDDP 0.4 mg/body once intraperitoneally, 3 mice) | number of viable cells (Mean) ([2]; 1/50 bleomycin group: bleomycin 50 μg/DMEM 500 μl/well) | number of viable cells (Mean) ([2]; 1/500 bleomycin group: bleomycin 5 μg/DMEM 500 μl/well) | number of viable cells (Mean) ([2]; 1/500 bleomycin group: bleomycin 5 μg/DMEM 500 μl/well, listed as Bleomycin) | number of viable cells (Mean) ([2]; 1/5,000 bleomycin group: bleomycin 500 ng/DMEM 500 μl/well) | number of viable cells (Mean) ([2]; 1/5,000 bleomycin group: bleomycin 500 ng/DMEM 500 μl/well, listed as Bleomycin)
1 | [NH2][Pt]([NH2])([Cl])[Cl] [CDDP, cisplatin] | 1619.79 mg | 1720.14 mm^3 | 1164.13 mg | 1367.62 mm^3 |  |  |  |  | 
2 | bleomycin HCl |  |  |  |  | 81800 | 164,600 | 164600 | 196,800 | 196800
